Values of other authors, collected in publication PMC6256190 (Biomedical Reports, 2018).

Settings: dry extract of ginger 100 mg to 2 g, 27 healthy American participants; glucuronides were detected

- Free compound in plasma: no free
Compound: CCCCC[C@H](O)CC(=O)CCc1ccc(O)c(OC)c1 [6-gingerol]
